Values joined by “and” are separate entries in the source; they are usually repeats but may differ in a detail not shown here. Identical values can stand only once. Like-named read-outs stand apart in the source and are kept apart here. Marks after values point to notes of the source that are not given here.
Assays:
clinical = conditions: human, in vivo
[1] = system: PD-1 positive and PD-1 negative CD4 and CD8 T cells; set-up: species or system human; conditions: in vivo
[2] = system: A/H1N1 strain A/New Jersey/8/76; type: in vivo, human; conditions: for Percentage of subjects who seroconvert to heterologous strain 4 weeks after seasonal influenza vaccination: A/H1N1 strain: A/NewJersey/8/76
[3] = system: 3 influenza vaccine strains (H1N1, H3N2 and B); experiment: Primary endpoint: HI GMT increase relative to placebo in at least 2 out of 3 influenza vaccine strains; type: in vivo, human; conditions: for primary endpoint (>=1.2-fold GMT increase relative to placebo in at least 2 out of 3 vaccine strains): ITT population
Description: (§1) The ability of RAD001 to improve immune function in elderly volunteers was evaluated by measuring the serologic response to the 2012 seasonal influenza vaccine. The hemagglutination inhibition (HI) geometric mean titers (GMT) to each of the 3 influenza vaccine strains at baseline and 4 weeks after influenza vaccination are provided in Table 4. The primary analysis variable was the HI GMT ratio (4 weeks post vaccination/baseline). […] This endpoint was chosen because a 1.2-fold increase in the influenza GMT ratio induced by the MF-59 vaccine adjuvant was associated with a decrease in influenza illness (Iob, A et al. (2005) Epidemiol Infect 133:687-693).
Elderly volunteers >=65 years of age were randomized to one of the 3 RAD001 treatment groups (50 subjects per arm) or placebo (20 subjects per arm). Subjects were treated with study drug for 6 weeks, given a 2 week break, and then received influenza (Aggrippal, Novartis) and pneumoccal (Pneumovax 23, Merck), vaccinations. Response to influenza vaccination was assessed by measuring the geometric mean titers (GMTs) by hemagglutination inhibition assay to the 3 influenza strains (H1N1, H3N2 and B influenza subtypes) in the influenza vaccine 4 weeks after vaccination. The primary endpoints of the study were (1) safety and tolerability and (2) a 1.2 fold increase in influenza titers as compared to placebo in ⅔ of the influenza vaccine strains 4 weeks after vaccination. This endpoint was chosen because a 1.2 fold increase in influenza titers is associated with a decrease in influenza illness post vaccination, and therefore is clinically relevant. […] The pneumococcal vaccine contains antigens from 23 pneumococcal serotypes. Antibody titers to 7 of the serotypes were measured in our subjects.

[4] = system: A/H1N1/California/07/2009; experiment: Anti-influenza IgG and IgM levels in serum before and 4 weeks after vaccination; type: in vivo, human; conditions: all p values >0.05 by Kruskal-Wallis rank sum test
Description: The trial was observer-blind because the placebo in the RAD001 0.5 mg daily and 20 mg weekly cohorts differed slightly from the RAD001 tablets in those cohorts. […] The treatment duration for all cohorts was 6 weeks during which time subjects underwent safety evaluations in the clinic every 2 weeks. After subjects had been dosed for 4 weeks, RAD001 steady state levels were measured pre-dose and at one hour post dose. […] Antibody titers to the 3 influenza vaccine strains as well as to 2 heterologous strains (A/H1N1 strain A/New Jersy/8/76 and A/H3N2 strain A/Victoria/361/11) were measured by standard hemagglutination inhibition assay (Kendal, A P et al. (1982) Concepts and procedures for laboratory-based influenza surveillance. Atlanta: Centers for Disease Control and Prevention B17-B35). Levels of IgG and IgM specific for the A/H1N1/California/07/2009 were measured in serum samples taken before and 4 weeks after influenza vaccination as described previously (Spensieri, F. et al. (2013) Proc. Natl. Acad. Sci. USA 110:14330-14335). Results were expressed as fluorescence intensity.

[5] = in vivo
B/Brisbane/60/2008 = experiment: Hemagglutination inhibition (HI) titers after seasonal influenza vaccination in elderly volunteers pretreated with RAD001 or placebo; type: in vivo, human
Description: (§2) From December 2011 to April 2012, 218 elderly volunteers were enrolled in a randomized, observer-blind, placebo-controlled trial. The subjects were randomized to treatment arms using a validated automated randomization system with a ratio of RAD001 to placebo of 5:2 in each treatment arm. The treatment arms were:
(§3) The trial was observer-blind because the placebo in the RAD001 0.5 mg daily and 20 mg weekly cohorts differed slightly from the RAD001 tablets in those cohorts. […] The treatment duration for all cohorts was 6 weeks during which time subjects underwent safety evaluations in the clinic every 2 weeks. After subjects had been dosed for 4 weeks, RAD001 steady state levels were measured pre-dose and at one hour post dose. After completing the 6 week course of study drug, subjects were given a 2 week drug free break to reverse any possible RAD001-induced immunosuppression, and then were given a 2012 seasonal influenza vaccination (Agrippal®, Novartis Vaccines and Diagnostics, Siena, Italy) containing the strains H1N1 A/California/07/2009, H3N2 A/Victoria/210/2009, B/Brisbane/60/2008. Four weeks after influenza vaccination, subjects had serum collected for influenza titer measurements. Antibody titers to the 3 influenza vaccine strains as well as to 2 heterologous strains (A/H1N1 strain A/New Jersy/8/76 and A/H3N2 strain A/Victoria/361/11) were measured by standard hemagglutination inhibition assay (Kendal, A P et al. (1982) Concepts and procedures for laboratory-based influenza surveillance. Atlanta: Centers for Disease Control and Prevention B17-B35). Levels of IgG and IgM specific for the A/H1N1/California/07/2009 were measured in serum samples taken before and 4 weeks after influenza vaccination as described previously (Spensieri, F. et al. (2013) Proc. Natl. Acad. Sci. USA 110:14330-14335). Results were expressed as fluorescence intensity.
(§4) The primary analysis of geometric mean titer ratios was done using a normal Bayesian regression model with non-informative priors. This model was fitted to each antibody titer on the log scale. The primary outcome in each model was the Day 84 measurement. The Day 63 measurement was included in the outcome vector. The model fitted using SAS 9.2 proc mixed with the prior statement. The covariance structure of the matrix was considered as unstructured (option type=UN). A flat prior was used. For the secondary analysis of seroconversion rates, logistic regression was used.
as §1
(§5) Rates of seroconversion 4 weeks after influenza vaccination were also evaluated. Seroconversion was defined as the change from a negative pre-vaccination titer (i.e., HI titer <1:10) to post-vaccination HI titer≥1:40 or at least 4-fold increase from a non-negative (≥1:10) pre-vaccination HI titer.

[6] = system: H1N1 A/California/07/2009; experiment: as above; type: in vivo, human
Description: as §2, §3, §4, §1, §5

H3N2 A/Victoria/210/2009 = experiment: as above; type: in vivo, human
Description: as §2, §3, §4, §1, §5

[7] = Adverse event assessment in elderly volunteers; type: in vivo, human; conditions: for Treatment-related AEs: Total AE(s): N = 53
Description: Adverse event assessment and blood collection for hematologic and biochemical safety assessments were performed during study visits. Adverse event information was also collected in diaries that subjects filled out at home during the 6 weeks they were on study drug. Data on all adverse events were collected from the time of informed consent until 30 days after the last study visit. Events were classified by the investigators as mild, moderate or severe.
The 4 SAEs were retinal hemorrhage of the left eye with subsequent blindness in a subject with normal platelet counts who had completed a 6 week course of 5 mg weekly RAD001 6 weeks previously; severe back pain in a subject treated with placebo and severe gastroenteritis in a subject treated with placebo. The most common RAD001-related AE was mouth ulcer that, in the majority of cases, was of mild severity.

[8] = system: A/H3N2 strain A/Victoria/361/11; experiment: HI titers / seroconversion to heterologous influenza strain not contained in the vaccine; type: in vivo, human; conditions: for Percentage of subjects who seroconvert to heterologous strain 4 weeks after seasonal influenza vaccination: A/H3N2 strain: A/Victoria/361/11
influenza = conditions: cited from earlier work
[9] = cited from earlier work
mTOR = mTOR (Homo sapiens, UniProt P42345); conditions: low concentration; Serra et al., 2008; cited from earlier work
PI3K/mTOR = conditions: relatively higher concentrations; Serra et al., 2008; cited from earlier work
[10] = Intention to Treat Population, 0.5 mg
[11] = Intention to Treat Population, 5 mg
[12] = Intention to Treat Population, 20 mg
[13] = Subjects with Baseline Titers <=40, 0.5 mg
[14] = Subjects with Baseline Titers <=40, 5 mg
[15] = Subjects with Baseline Titers <=40, 20 mg

CO[C@H]1C[C@@H]2CC[C@@H](C)[C@@](O)(O2)C(=O)C(=O)N2CCCC[C@H]2C(=O)O[C@H]([C@H](C)C[C@@H]2CC[C@@H](OCCO)[C@H](OC)C2)CC(=O)[C@H](C)/C=C(\C)[C@@H](O)[C@@H](OC)C(=O)[C@H](C)C[C@H](C)/C=C/C=C/C=C/1C [RAD001, (1R,9S,12S,15R,16E,18R,19R,21R,23 S,24E,26E,28E,30S,32S,35R)-1,18-dihydroxy-12-{(1R)-2-[(1 S,3R,4R)-4-(2-hydroxyethoxy)-3-methoxycyclohexyl]-1-methylethyl}-19,30-dimethoxy-15,17,21,23,29,35-hexamethyl-11,36-dioxa-4-aza-tricyclo[30.3.1.04,9]hexatriaconta-16,24,26,28-tetraene-2,3,10,14,20-pentaone]
concentration at 4 weeks (clinical; 0.5 mg daily): 0.9 ng/mL
concentration at 4 weeks (clinical; 5 mg weekly): < 0.3 ng/mL
concentration at 4 weeks (clinical; 20 mg weekly): 0.7 ng/mL
decrease in PD-1-positive CD4 T cells as compared to the placebo cohort [1]: −37.1-−28.5%
decrease in PD-1-positive CD8 T cells as compared to the placebo cohort [1]: −43.3-−38.5%
decrease in PD-1 positive CD4 T cells compared to placebo cohort [1]: 30.2% and 32.7%
decrease in PD-1 positive CD8 T cells compared to placebo cohort [1]: 37.4% and 41.4%
increase in PD-1-negative CD4 T cells as compared to the placebo cohort [1]: 3.0-4.9%
percentage of CD4 PD-1 positive T cells versus baseline [1]: decreased from baseline
percentage of CD8 PD-1 positive cells versus baseline [1]: decreased from baseline
significant differences in the percentages of naïve lymphocytes versus placebo [1]: not detected
increase in HI GMT ratio for heterologous strain as compared to placebo ([2]; 4 weeks after vaccination): higher
Percentage of subjects who seroconvert to heterologous strain 4 weeks after seasonal influenza vaccination ([2]; RAD001 5 mg weekly): 16%
Percentage of subjects who seroconvert to heterologous strain 4 weeks after seasonal influenza vaccination ([2]; RAD001 20 mg weekly): 8%
primary endpoint (>=1.2-fold GMT increase relative to placebo in at least 2 out of 3 vaccine strains) ([3]; 0.5 mg daily or 5 mg weekly): met the GMT primary endpoint
primary endpoint (>=1.2-fold GMT increase relative to placebo in at least 2 out of 3 vaccine strains) ([3]; 20 mg weekly): but not higher dose (20 mg weekly) cohort met the primary endpoint
RAD001 concentration versus increase in titer to each influenza vaccine strain ([3]; RAD001 concentration 1 hour post dose after 4 weeks dosing): inverse exposure/response relationship
increase in influenza titers in subjects with low baseline titers versus ITT population ([3]; subset with baseline influenza titers <=1:40): greater RAD001-associated increase in titers
change from baseline to 4 weeks post vaccination in anti-H1N1 influenza IgG and IgM levels versus placebo [4]: No significant difference
trough level of study dosing regimens relative to approved transplant and oncology regimens ([5]; human): 3-20 fold lower
average RAD001 trough level [5]: below detection limits
Percent of subjects with seroconversion to influenza 4 weeks after vaccination (B/Brisbane/60/2008; [10]): 27%
Percent of subjects with seroconversion to influenza 4 weeks after vaccination (B/Brisbane/60/2008; [11]): 22%
Percent of subjects with seroconversion to influenza 4 weeks after vaccination (B/Brisbane/60/2008; [12]): 19%
Percent of subjects with seroconversion to influenza 4 weeks after vaccination (B/Brisbane/60/2008; [13]): 40* Percent
Percent of subjects with seroconversion to influenza 4 weeks after vaccination (B/Brisbane/60/2008; [14]): 33%
Percent of subjects with seroconversion to influenza 4 weeks after vaccination (B/Brisbane/60/2008; [15]): 28%
Percent of subjects with seroconversion to influenza 4 weeks after vaccination [6, 10]: 27%
Percent of subjects with seroconversion to influenza 4 weeks after vaccination [6, 11]: 27%
Percent of subjects with seroconversion to influenza 4 weeks after vaccination [6, 12]: 17%
Percent of subjects with seroconversion to influenza 4 weeks after vaccination [6, 13]: 42%
Percent of subjects with seroconversion to influenza 4 weeks after vaccination [6, 14]: 45%
Percent of subjects with seroconversion to influenza 4 weeks after vaccination [6, 15]: 36%
Percent of subjects with seroconversion to influenza 4 weeks after vaccination (H3N2 A/Victoria/210/2009; [10]): 27%
Percent of subjects with seroconversion to influenza 4 weeks after vaccination (H3N2 A/Victoria/210/2009; [11]): 24%
Percent of subjects with seroconversion to influenza 4 weeks after vaccination (H3N2 A/Victoria/210/2009; [12]): 25%
Percent of subjects with seroconversion to influenza 4 weeks after vaccination (H3N2 A/Victoria/210/2009; [13]): 64%
Percent of subjects with seroconversion to influenza 4 weeks after vaccination (H3N2 A/Victoria/210/2009; [14]): 53%
Percent of subjects with seroconversion to influenza 4 weeks after vaccination (H3N2 A/Victoria/210/2009; [15]): 71%
Treatment-related AEs: Total AE(s) ([7]; RAD001 0.5 mg daily): 35 n (%)
Treatment-related AEs: Total AE(s) ([7]; RAD001 5 mg weekly): 46 n (%)
Treatment-related AEs: Total AE(s) ([7]; RAD001 20 mg weekly): 109 n (%)
deaths during the study ([7]; elderly volunteers, 6 week treatment): No deaths occurred
severe AEs assessed as related to RAD001 ([7]; mouth ulcers in a subject treated with 20 mg weekly): Only one severe AE
increase in HI GMT ratio for heterologous strain as compared to placebo ([8]; 4 weeks after vaccination): higher
Percentage of subjects who seroconvert to heterologous strain 4 weeks after seasonal influenza vaccination ([8]; RAD001 0.5 mg daily): 38%
Percentage of subjects who seroconvert to heterologous strain 4 weeks after seasonal influenza vaccination ([8]; RAD001 5 mg weekly): 39%*
Percentage of subjects who seroconvert to heterologous strain 4 weeks after seasonal influenza vaccination ([8]; RAD001 20 mg weekly): 40%*
H3N2 heterologous strain seroconversion rate ([8]; pooled RAD001 cohorts, versus 20% for placebo (p=0.007)): 39%

CO[C@H]1C[C@@H]2CC[C@@H](C)[C@@](O)(O2)C(=O)C(=O)N2CCCC[C@H]2C(=O)O[C@H]([C@H](C)C[C@@H]2CC[C@@H](O)[C@H](OC)C2)CC(=O)[C@H](C)/C=C(\C)[C@@H](O)[C@@H](OC)C(=O)[C@H](C)C[C@H](C)/C=C/C=C/C=C/1C [rapamycin]
response to influenza vaccination (influenza; elderly mice, 6 weeks of treatment): improved response to influenza vaccination
serologic response to influenza as compared to placebo (influenza; mice vaccinated against influenza in the presence of rapamycin): broader serologic response to influenza
lifespan ([9]; mice): extend lifespan
spontaneous physical activity ([9]; old mice): increases spontaneous physical activity

Cn1c(=O)n(-c2ccc(C(C)(C)C#N)cc2)c2c3cc(-c4cnc5ccccc5c4)ccc3ncc21 [BEZ235, 2-methyl-2-[4-(3-methyl-2-oxo-8-quinolin-3-yl-2,3-dihydro-imidazo[4,5-c]quinolin-1-yl)-phenyl]-propionitrile]
concentration at which mTOR inhibition predominates (mTOR): less than 100 nmol/L
concentration giving dual PI3K/mTOR inhibition (PI3K/mTOR): approximately 500 nmol/L

From US10004803B2, “Low, immune enhancing, dose mtor inhibitors and uses thereof” (Novartis AG, priority 2013, dated 2018)
